The record followed here is patent US7884117B2, “Carbonylamino pyrrolopyrazoles, potent kinase inhibitors” (Pfizer Inc., priority 2005, dated 2011).

Data set [1] addresses T1, PAK4 Kinase domain (PAK4 KD) (Homo sapiens, UniProt O96013).
T1 construct: Cloning, expression, and purification of recombinant PAK4 Kinase domain (PAK4 KD); His tag (pET28a(+)/pET24a(+), Ni-NTA purification) (N, cleaved yes); GST (pGST4.5, glutathione column) (N, cleaved yes); made in house; host or cells: E. coli BL21(DE3)
The experiment in a line: PAK4 kinase domain enzymatic assay (PK/LDH-coupled, Ki). In kind it is biochemical. The conditions noted are these: PAK4 Kinase Domain.

In data set [2] the target is T2, PAK4 kinase activity in whole cells (TR-293-KDG, modified HEK 293) (Homo sapiens, UniProt O96013).
T2 construct: engineered to overexpress both GEF-H1b and the kinase domain (KD) of PAK4; expressed in transfected cells; host or cells: TR-293-KDG (modified HEK 293, Trex system, Invitrogen)
The experiment in a line: PAK4 cellular assay: sandwich ELISA of PAK4-dependent phosphorylation of GEF-H1b in TR-293-KDG cells. In kind it is cell-based. The note with it: 3-hour exposure. For orientation: An ELISA detects its analyte on a solid surface through an enzyme-linked reagent.

The test system of data set [3] is HCT116 human colorectal carcinoma tumor xenografts. In words: Tumor growth inhibition and tumor growth delay of HCT116 xenografts in athymic mice. The conditions noted are these: for Tumor growth inhibition (TGI) % TGImax d39 / Tumor growth delay T-C1250 mm3: oral gavage; for Tumor growth inhibition (TGI) % TGImax d39: day 39, vs vehicle; for Tumor growth delay T-C1250 mm3: evaluation size 1250 mm3. Type of data set: in vivo. On the procedure:
Material and preparation: The HCT116 cell line was obtained from American Type Culture Collection (ATCC, Bethesda, Md.). Cells were grown as monolayers in McCoy's media each supplemented with 10% FBS (each from Life Technologies, Inc., Bethesda, Md.) and maintained at 37° C. in a humidified atmosphere at 5% CO2. Tumor cells for implantation into athymic mice were harvested near confluence by incubation with 0.05% Trypsin-EDTA. Cells were pelleted at 450×g for 5-10 minutes and the cell pellets were re-suspended in serum-free McCoy's medium supplemented with 50% matrigel. Tumor cells (1×10^6 cells/animal) were implanted s.c. into the hindflank region of each mouse on day 0 and allowed to grow to the designated size prior to the administration of compound for each experiment.
Tumor growth inhibition: Treatment was initiated when tumors were approximately 200 mm3 in size. Compound of Example 2 or vehicle (methyl cellulose, MC) was administered as an oral gavage daily or every other day at 10 mL/kg. Tumors were measured using Vernier calipers, and tumor volumes were calculated utilizing the formula length×width2×0.4. Tumor volume was measured on the indicated days, with the median tumor volume indicated for each group of 12 animals; median±SEM. At the end of the study, the maximum percent tumor growth inhibition was calculated as 100×(tumor volumefinal−tumor volumeinitial) for Compound 1f Example 2-treated group/(tumor volumefinal−tumor volumeinitial) for vehicle group on day 39 and tumor growth delay was calculated as median […] when median tumor volume reached 1250 mm^3.
Tumor growth delay: Treatment with Compound of Example 2 began on day 11 when tumors reached a volume of ˜200 mm^3 and continued for 28 days until the control tumors reached evaluation size (1250 mm^3). Tumor measurement continued until treated tumors reached evaluation size (1250 mm^3) in order to assess tumor growth delay. Compound of Example 2 was administered to tumor-bearing mice by oral gavage as a solution in MC in 10 mL/kg volume and compared with vehicle alone administered in the same volume.

Each structure is given as a SMILES string. Values joined by “and” are separate entries in the source; they are usually repeats but may differ in a detail not shown here. Equal entries are not always repeated. “Also recorded” adds a separate entry of the source.

T2 sequence (O96013 321-572 limits assumed): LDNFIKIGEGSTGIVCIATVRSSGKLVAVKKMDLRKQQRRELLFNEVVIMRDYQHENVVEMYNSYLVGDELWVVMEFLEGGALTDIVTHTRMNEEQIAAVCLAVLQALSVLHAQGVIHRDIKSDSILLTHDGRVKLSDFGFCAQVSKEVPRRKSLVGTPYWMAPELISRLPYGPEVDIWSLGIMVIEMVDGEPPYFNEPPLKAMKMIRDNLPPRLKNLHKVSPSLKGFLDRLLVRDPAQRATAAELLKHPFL
T1 sequence (O96013 321-572 limits assumed): as above

Consider `CN(C)C[C@@H](OC(=O)N1Cc2c(NC(=O)c3ccc(F)cc3)n[nH]c2C1(C)C)c1ccccc1` [Example 2, (1S)-2-(dimethylamino)-1-phenylethyl 3-[(4-fluorobenzoyl)amino]-6,6-dimethyl-4,6-dihydropyrrolo[3,4-c]pyrazole-5(1H)-carboxylate], for which the Ki in data set [1] was determined as 16.7 nM. This molecule yielded a concentration for a half-maximal effect (EC50) in data set [2] of 9.7 nM. In data set [3] (50 mg/kg QD), the “Tumor growth inhibition (TGI) % TGImax d39” value is recorded as 50% and the “Tumor growth delay T-C1250 mm3” value was determined as 12.2 days. For the same molecule, in data set [3] (75 mg/Kg/QOD), the “Tumor growth inhibition (TGI) % TGImax d39” value is 37% and 36.6%; the “Tumor growth delay T-C1250 mm3” value was determined as 9.8 days. For the same molecule, in data set [3] (HCT116 xenografts in athymic mice, oral), the “in vivo tumor growth inhibition/delay (in words)” value is given as “showed in vivo tumor growth inhibition; also recorded: inhibited/delayed growth”. Moreover, the “general health and body weight of treated mice” value in data set [3] (throughout the 28 day treatment cycle, oral) is “generally appeared healthy and continued to gain weight”.
Molecule `CN(C)C[C@@H](OC(=O)N1Cc2c(NC(=O)c3ccccc3)n[nH]c2C1(C)C)c1ccccn1` [Example 24, (1R)-2-(dimethylamino)-1-pyridin-2-ylethyl 3-(benzoylamino)-6,6-dimethyl-4,6-dihydropyrrolo[3,4-c]pyrazole-5(1H)-carboxylate] came in with a Ki in data set [1] of 63.7 nM. This molecule also showed a concentration for a half-maximal effect (EC50) in data set [2] of 140 nM.
With `COC[C@@H](CN(C)C)OC(=O)N1Cc2c(NC(=O)c3ccc(F)cc3)n[nH]c2C1(C)C` [Example 77, (1R)-2-(dimethylamino)-1-(methoxymethyl)ethyl 3-[(4-fluorobenzoyl)amino]-6,6-dimethyl-4,6-dihydropyrrolo[3,4-c]pyrazole-5(1H)-carboxylate], in data set [1], affinity was put at a Ki of 345 nM. Also, the midpoint of the response in data set [2], the EC50, lay at 167 nM.

One may read the Ki as a dissociation constant, usually derived from enzyme kinetics or from competition with a known ligand. Read a low Ki as tighter binding. As a reminder, the EC50 is the concentration needed to bring the measured effect to its halfway point. Low values mean greater potency, high ones weaker potency.
